Assay results reported in paper PMC11754779, “Mechanism of sensor kinase CitA transmembrane signaling” (Nature Communications, 2025).
Blank lines part the entries; values can stand above or below the compound they belong to.

Assays:
Gt CitA PASp domain (WT) = molecular target: T1, Gt CitA PASp domain (WT) (Geobacillus thermodenitrificans, UniProt A4IPE6); assay: X-ray crystallography, molecular replacement; type: binding; details: 1 mM sodium citrate added; crystallised from 1 M tri-sodium citrate, 0.1 M imidazole pH 9.0
T1 construct: gene GTNG_1840; periplasmic (extracytoplasmic) PAS/PDC sensor domain; E. coli BL21(DE3); N-terminal His-tag removed with TEV protease

full length Gt CitA = molecular target: T2, full length Gt CitA (Geobacillus thermodenitrificans, UniProt A4IPE6, C12A/R93A/N308C, form not given); assay: […] NMR ATP hydrolysis assay in DMPC liposomes; type: biochemical; details: 5 mM sodium citrate; 6 mM ATP, 10 mM MgCl2, pH 6.5, 37 C; untagged and CH2COCF3-tagged at N308C; activator
T2 construct: gene GTNG_1840; full length; vector pET16b, Ni-NTA purified, reconstituted in DMPC liposomes (C12A/R93A/N308C); pMW1652 in E. coli IMW549 for reporter assay

[1] = molecular target: T3, CitApc (C12A/R93A CitA1-309) (Geobacillus thermodenitrificans, UniProt A4IPE6, C12A/R93A); assay: 1H-detected MAS solid-state NMR chemical shifts; type: binding; details: 5 mM sodium citrate, 20 mM sodium phosphate pH 6.5; DMPC/DMPA liposomes; 293 K
T3 construct: gene GTNG_1840; residues 1-309 (PASp, TM helices, PASc; no kinase core); E. coli C43(DE3), Ni-NTA purified; reconstituted in DMPC/DMPA liposomes; dimer

[2] = molecular target: T4, CitApc (C12A/R93A CitA1-309) (Geobacillus thermodenitrificans, UniProt A4IPE6, C12A/R93A/N308C); assay: […] CODEX with DNP, inter-dimer distance change; type: binding; details: CH2COCF3-tagged at N308C; liposomes; 90 K
T4 construct: gene GTNG_1840; residues 1-309 (PASp, TM helices, PASc; no kinase core); E. coli C43(DE3), Ni-NTA purified; reconstituted in DMPC/DMPA liposomes; dimer

[3] = molecular target: N288D mutant of the cytosolic PAS domain (PASc) of Geobacillus thermodenitrificans CitA (Geobacillus thermodenitrificans); assay: SEC; size exclusion column, down to a concentration of 1 μM (Supplementary Fig. 8)
[4] = molecular target: wild-type cytosolic PAS domain (PASc) of Geobacillus thermodenitrificans CitA (Geobacillus thermodenitrificans); assay: as above

T3 sequence (A4IPE6 entry or part of it C12A/R93A): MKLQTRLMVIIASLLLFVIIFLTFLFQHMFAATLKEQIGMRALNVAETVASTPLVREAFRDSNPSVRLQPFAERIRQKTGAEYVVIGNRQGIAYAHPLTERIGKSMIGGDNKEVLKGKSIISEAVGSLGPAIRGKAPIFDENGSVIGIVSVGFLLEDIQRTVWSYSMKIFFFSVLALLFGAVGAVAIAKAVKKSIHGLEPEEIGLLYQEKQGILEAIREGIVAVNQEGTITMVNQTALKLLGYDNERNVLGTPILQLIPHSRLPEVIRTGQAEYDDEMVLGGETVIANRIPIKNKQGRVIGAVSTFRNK
T1 sequence (A4IPE6 entry or part of it): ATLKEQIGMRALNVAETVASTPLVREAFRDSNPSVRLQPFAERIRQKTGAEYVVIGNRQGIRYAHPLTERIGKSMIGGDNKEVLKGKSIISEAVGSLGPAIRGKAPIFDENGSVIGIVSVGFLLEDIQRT
T2 sequence (A4IPE6 entry or part of it C12A/R93A/N308C, form open): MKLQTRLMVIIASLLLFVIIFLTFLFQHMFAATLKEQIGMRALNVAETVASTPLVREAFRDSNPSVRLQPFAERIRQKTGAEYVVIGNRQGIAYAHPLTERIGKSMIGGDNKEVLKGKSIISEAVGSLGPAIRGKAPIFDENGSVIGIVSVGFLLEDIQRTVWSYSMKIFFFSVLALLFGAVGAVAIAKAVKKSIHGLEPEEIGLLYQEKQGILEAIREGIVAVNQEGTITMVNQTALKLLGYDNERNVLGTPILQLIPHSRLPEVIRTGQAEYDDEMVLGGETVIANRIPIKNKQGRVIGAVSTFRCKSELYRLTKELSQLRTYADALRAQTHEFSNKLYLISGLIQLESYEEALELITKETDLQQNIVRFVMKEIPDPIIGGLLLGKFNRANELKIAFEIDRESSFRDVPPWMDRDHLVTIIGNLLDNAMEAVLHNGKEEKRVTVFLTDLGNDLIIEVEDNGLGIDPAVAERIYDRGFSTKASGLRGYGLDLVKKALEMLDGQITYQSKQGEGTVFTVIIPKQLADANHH
T4 sequence (A4IPE6 entry or part of it C12A/R93A/N308C): as the sequence (A4IPE6 entry or part of it C12A/R93A) above, with N308C counted along it

Compound: O=C(O)CC(O)(CC(=O)O)C(=O)O [citrate]
X-ray crystallography, molecular replacement (Gt CitA PASp domain (WT)): Superposition of the citrate-bound Gt PASp domain structure (PDB: 8BGB
31P NMR ATP hydrolysis assay in DMPC liposomes (full length Gt CitA): Upon citrate binding, a threefold increase in CitA’s ATP hydrolysis rate was observed
1H-detected MAS solid-state NMR chemical shifts [1]: also indicate changes in secondary structure upon addition of citrate
19F CODEX with DNP, inter-dimer distance change [2]: A decay in the CODEX signal to half of the reference signal was observed when citrate was bound

stoichiometry N [3]: 2
Compound: N288D mutant of the cytosolic PAS domain (PASc) of Geobacillus thermodenitrificans CitA (domain or fragment)

stoichiometry N [4]: 2
Compound: wild-type cytosolic PAS domain (PASc) of Geobacillus thermodenitrificans CitA (domain or fragment)
